Measured values reported in the NIST ThermoML archive (doi:10.1021/acs.jced.5b00197).
± gives the expanded uncertainty stated by the source.

What was measured:
[1] = xn = mol fraction of the nth substance listed; conditions: 96.64 kPa, Liquid, mechanical oscillator
[2] = refractive index (Na D-line) (dimensionless); xn = mol fraction of the nth substance listed; conditions: 94.64 kPa, Liquid, Standard Abbe refractometry

CC(=O)O [acetic acid] + Cc1ccccc1
Conditions	mass density, 293.15 K [kg/m3]	mass density, 298.15 K [kg/m3]	mass density, 303.15 K [kg/m3]	refractive index, 293.15 K	refractive index, 298.15 K	refractive index, 303.15 K
[1], x1 = 0.146	878.94 ± 4	873.65 ± 4	868.47 ± 4	–	–	–
[1], x1 = 0.277	894.11 ± 4	888.81 ± 4	883.38 ± 4	–	–	–
[1], x1 = 0.397	907.9 ± 4	902.58 ± 4	897.1 ± 4	–	–	–
[1], x1 = 0.506	924.08 ± 4	918.49 ± 4	912.96 ± 4	–	–	–
[1], x1 = 0.605	940.43 ± 4	934.75 ± 4	929.15 ± 4	–	–	–
[1], x1 = 0.697	960 ± 4	954.12 ± 4	948.31 ± 4	–	–	–
[1], x1 = 0.782	978.4 ± 4	972.48 ± 4	966.6 ± 4	–	–	–
[1], x1 = 0.859	1000.2 ± 4	994.34 ± 4	988.34 ± 4	–	–	–
[1], x1 = 0.897	1017.74 ± 4	1011.75 ± 4	1005.81 ± 4	–	–	–
[1], x1 = 0.932	1027.84 ± 4	1021.82 ± 4	1015.9 ± 4	–	–	–
[1], x1 = 0.967	1038.11 ± 4	1032.17 ± 4	1026.28 ± 4	–	–	–
[1], x1 = 1	1049.63 ± 4	1043.57 ± 4	1037.64 ± 4	–	–	–
[2], x1 = 0.146	–	–	–	1.48448 ± 0.00039	1.48174 ± 0.00039	1.47906 ± 0.00039
[2], x1 = 0.277	–	–	–	1.47082 ± 0.00039	1.4681 ± 0.00039	1.46535 ± 0.00039
[2], x1 = 0.397	–	–	–	1.45878 ± 0.00038	1.45618 ± 0.00038	1.45352 ± 0.00038
[2], x1 = 0.506	–	–	–	1.44593 ± 0.00038	1.44332 ± 0.00038	1.44065 ± 0.00038
[2], x1 = 0.605	–	–	–	1.43372 ± 0.00038	1.43116 ± 0.00038	1.42842 ± 0.00038
[2], x1 = 0.697	–	–	–	1.4212 ± 0.0004	1.41872 ± 0.00037	1.41617 ± 0.00037
[2], x1 = 0.782	–	–	–	1.40891 ± 0.00037	1.4065 ± 0.00037	1.40452 ± 0.00037
[2], x1 = 0.859	–	–	–	1.39681 ± 0.00037	1.39453 ± 0.00037	1.39228 ± 0.00037
[2], x1 = 0.897	–	–	–	1.38731 ± 0.00037	1.38466 ± 0.00037	1.38303 ± 0.00037
[2], x1 = 0.932	–	–	–	1.38235 ± 0.00037	1.38029 ± 0.00037	1.3782 ± 0.00037
[2], x1 = 0.967	–	–	–	1.37721 ± 0.00037	1.3752 ± 0.00037	1.37315 ± 0.00037
[2], x1 = 1	–	–	–	1.37224 ± 0.00036	1.37012 ± 0.00036	1.36809 ± 0.00036

CC(=O)O [acetic acid] + O
Conditions	mass density, 293.15 K [kg/m3]	mass density, 298.15 K [kg/m3]	mass density, 303.15 K [kg/m3]	refractive index, 293.15 K	refractive index, 298.15 K	refractive index, 303.15 K
[1], x1 = 0.0322	1013.1 ± 6.2	1010.07 ± 6.2	1007.37 ± 6.2	–	–	–
[1], x1 = 0.0697	1029.11 ± 6	1024.31 ± 6	1021.16 ± 6	–	–	–
[1], x1 = 0.114	1040.03 ± 5.8	1036.43 ± 5.8	1032.93 ± 5.8	–	–	–
[1], x1 = 0.167	1049.79 ± 5.5	1045.44 ± 5.5	1039.59 ± 5.5	–	–	–
[1], x1 = 0.231	1057.69 ± 5.2	1053.12 ± 5.2	1048.56 ± 5.2	–	–	–
[1], x1 = 0.31	1064.29 ± 4.9	1059.45 ± 4.9	1054.48 ± 4.8	–	–	–
[1], x1 = 0.412	1068.57 ± 4.5	1063.31 ± 4.5	1058.16 ± 4.5	–	–	–
[1], x1 = 0.545	1068.93 ± 4.2	1063.47 ± 4.2	1058.01 ± 4.2	–	–	–
[1], x1 = 0.629	1067.42 ± 4.1	1061.15 ± 4.1	1057.17 ± 4.1	–	–	–
[1], x1 = 0.729	1062.82 ± 4	1058.08 ± 4	1053.26 ± 4	–	–	–
[1], x1 = 0.85	1059.62 ± 4	1053.73 ± 4	1047.95 ± 4	–	–	–
[1], x1 = 1	1049.63 ± 4	1043.57 ± 4	1037.64 ± 4	–	–	–
[2], x1 = 0.0322	–	–	–	1.34079 ± 0.001	1.34007 ± 0.001	1.33927 ± 0.001
[2], x1 = 0.0697	–	–	–	1.34792 ± 0.001	1.34695 ± 0.001	1.34593 ± 0.001
[2], x1 = 0.114	–	–	–	1.35489 ± 0.00096	1.35372 ± 0.00096	1.3525 ± 0.00096
[2], x1 = 0.167	–	–	–	1.3609 ± 0.00092	1.35957 ± 0.00092	1.35822 ± 0.00092
[2], x1 = 0.231	–	–	–	1.36583 ± 0.00086	1.36436 ± 0.00086	1.36288 ± 0.00086
[2], x1 = 0.31	–	–	–	1.37062 ± 0.0008	1.369 ± 0.0008	1.36736 ± 0.0008
[2], x1 = 0.412	–	–	–	1.37406 ± 0.00072	1.37233 ± 0.00072	1.37058 ± 0.00072
[2], x1 = 0.545	–	–	–	1.37703 ± 0.00062	1.37519 ± 0.00062	1.37331 ± 0.00062
[2], x1 = 0.629	–	–	–	1.37724 ± 0.00056	1.37545 ± 0.00056	1.37349 ± 0.00056
[2], x1 = 0.729	–	–	–	1.37721 ± 0.00049	1.3753 ± 0.00049	1.37335 ± 0.00049
[2], x1 = 0.85	–	–	–	1.37559 ± 0.00042	1.37359 ± 0.00042	1.3716 ± 0.00042
[2], x1 = 1	–	–	–	1.37224 ± 0.00036	1.37012 ± 0.00036	1.36809 ± 0.00036
